Reference: US4772595A, “Synthetic virginiamycin M1 analogs” (Merck & Co., Inc., priority 1986, dated 1988)

Columns and labels:
Brain CCK Receptor = biological target: T1, Brain CCK Receptor (Cavia porcellus, UniProt H0VZC5); assay: Brain Cholecystokinin Receptor Binding Assay (cerebral cortex); details: guinea pig cerebral cortex, 125I-CCK-8, 25° C., 2 hours
T1 construct: The cerebral cortex was dissected and used as a receptor source; from tissue; host or cells: cerebral cortex membranes of male Hartley guinea pigs
T1 sequence (H0VZC5 1-426): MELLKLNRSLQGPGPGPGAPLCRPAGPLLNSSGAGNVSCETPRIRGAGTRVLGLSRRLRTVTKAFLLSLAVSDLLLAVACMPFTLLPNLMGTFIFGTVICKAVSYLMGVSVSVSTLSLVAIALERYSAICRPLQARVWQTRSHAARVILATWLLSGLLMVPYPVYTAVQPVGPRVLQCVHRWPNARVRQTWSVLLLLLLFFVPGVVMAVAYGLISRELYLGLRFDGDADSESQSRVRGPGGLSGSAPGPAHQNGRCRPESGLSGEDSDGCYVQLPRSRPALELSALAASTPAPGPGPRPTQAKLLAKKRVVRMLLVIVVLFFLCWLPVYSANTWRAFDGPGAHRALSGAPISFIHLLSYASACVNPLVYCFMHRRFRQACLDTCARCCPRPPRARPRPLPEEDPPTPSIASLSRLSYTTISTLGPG
Experimental: CCK-8 binding was performed according to the description for the pancreatic method, with modifications by Saito et al., J. Neurochem., 37, 483 (1981).
The brains from male Hartley guinea pigs (300-500 g) were removed and placed in ice-cold 50 mM Tris HCl plus 7.58 g/L Trizma-7.4 [pH 7.4 at 25° C.]. The cerebral cortex was dissected and used as a receptor source and each gram of fresh guinea pig brain tissue was homogenized in 10 ml of Tris/Trizma buffer, pH 7.4, with a Brinkmann polytron PT-10. The homogenates were centrifuged at 42,000×g for 15 minutes, then the resulting pellets were resuspended in 200 volumes of binding assay buffer (10 mM N-2-hydroxy-ethyl-piperazine-N'-2-ethane-sulfonic acid (HEPES), pH 7.7 at 25° C., MgCl2, 1 mM ethylene glycol-bis-(β-amino-ethyl-ether-N,N'-tetraacetic acid (EGTA), 0.4% BSA and 0.25 mg/ml bacitracin, pH 6.5).
The remainder of the binding assay method was as described for the pancreatic method, Example 6, except that the reaction mixtures were incubated at 25° C. for 2 hours before filtration and the filters were washed with HEPES buffer.

[1] = test system: CCK and gastrin receptors; assay: Binding to both CCK and gastrin receptors (summary statement); details: summary in words
Experimental: Biological activity of virginiamycin M1 and the compounds of Formulae I, II, III and IV is determined by gastrin receptor binding, pancreas CCK receptor binding, brain CCK binding and microbial growth inhibition assays.

[2] = C-terminal octapeptide vs CCK-33; cited from earlier work
gram-positive bacteria = details: cited from earlier work
gastric acid secretion = details: cited from earlier work

Molecule	IC50 (Brain CCK Receptor)	binding to CCK and gastrin receptors [1]	other results
CC1=C\C=C\[C@H](O)Cc2nc(co2)C(=O)N2CCC=C2C(=O)O[C@H](C(C)C)[C@H](C)/C=C/C(=O)NC\C=C\1 [Compound II]	6.1 nM	bind to both CCK and gastrin receptors	–
C-terminal octapeptide: C-terminal octapeptide has the same efficacy as CCK-33	–	–	efficacy relative to CCK-33 [2]: same efficacy as CCK-33; potency relative to CCK-33 [2]: approximately ten
CC1=C\C=C\[C@@H](O)Cc2nc(co2)C(=O)N2CCC=C2C(=O)O[C@H](C(C)C)[C@H](C)/C=C/C(=O)NC\C=C\1 [Compound I]	7.8 nM	bind to both CCK and gastrin receptors	–
CC1=C\[C@@H](O)CC(=O)Cc2nc(co2)C(=O)N2CCC=C2C(=O)O[C@H](C(C)C)[C@H](C)/C=C/C(=O)NC\C=C\1 [Virginiamycin M1]	571 nM	bind to both CCK and gastrin receptors	antibacterial specificity (gram-positive bacteria): generally specific for gram-positive bacteria and prevent cell multiplication
CC1=C\C=C\C(=O)Cc2nc(co2)C(=O)N2CCC=C2C(=O)O[C@H](C(C)C)[C@H](C)/C=C/C(=O)NC\C=C\1 [Compound III]	13.3 nM	bind to both CCK and gastrin receptors	–
Gastrin-17: 17-amino acid form of gastrin, C-terminal fragment of the 34-amino acid form	–	–	potency relative to Gastrin-13 (gastric acid secretion; Gastrin-17 vs Gastrin-13): 2.5 times; potency relative to Gastrin-34 (gastric acid secretion; Gastrin-17 vs Gastrin-34): 5 times
CC1=C\CCC(=O)Cc2nc(co2)C(=O)N2CCC=C2C(=O)O[C@H](C(C)C)[C@H](C)/C=C/C(=O)NC\C=C\1 [IV]	270 nM	bind to both CCK and gastrin receptors	–
